Reference: patent US6482921B1, “Uridyl peptide antibiotic (UPA) derivatives, their synthesis and use” (Essential Therapeutics, Inc., priority 1999, dated 2002)
Values after ≈ are worked out from the molar mass of the structure shown.

Columns and labels:
Type in all cases: cell-based
[1] = tested on: Escherichia Coli MC 4100 AcrAB; assay: MIC broth microdilution, E. coli MC 4100 AcrAB (ΔAcrAB); conditions: E. coli AcrAB
[2] = tested on: Pasteurella multocida pm002; assay: MIC broth microdilution, P. multocida pm002 (wild type)
[3] = tested on: Pseudomonas aeruginosa PAM 1135; assay: MIC broth microdilution, P. aeruginosa PAM 1135 (high level UPA resistance); conditions: P. aeruginosa PAM 1135 UPA1^r
[4] = tested on: Pseudomonas aeruginosa PAM 1154; assay: MIC broth microdilution, P. aeruginosa PAM 1154 (OprM::Hg); conditions: P. aeruginosa PAM 1154 OprM::Hg
[5] = tested on: Escherichia Coli MC 4100 AcrAB UPA3r; assay: MIC broth microdilution, E. coli MC 4100 AcrAB UPA3r (ΔAcrAB, UPA resistant); conditions: E. coli AcrAB UPA3^r
[6] = tested on: Pseudomonas aeruginosa PAM 1323; assay: MIC broth microdilution, P. aeruginosa PAM 1323 (medium level UPA resistance)
Escherichia Coli MC 4100 = assay: MIC broth microdilution, E. coli MC 4100 (wild type); conditions: E. coli MC 4100
[7] = tested on: Staphylococcus aureus ATCC 29213; assay: MIC broth microdilution, S. aureus ATCC 29213 (wild type); conditions: S. aureus ATCC 29213
[8] = tested on: Pseudomonas aeruginosa PAM 1020; assay: MIC broth microdilution, P. aeruginosa PAM 1020 (wild type); conditions: P. aeruginosa PAM 1020
[9] = tested on: Staphylococcus aureus 8325-4; assay: MIC broth microdilution, S. aureus 8325-4 (wild type); conditions: S. aureus 8325-4

Row | SMILES | MIC (μg/ml) Broth microdilution [1] [µg/mL] | MIC (μg/ml) Broth microdilution [2] [µg/mL] | MIC (μg/ml) Broth microdilution [3] [µg/mL] | MIC (μg/ml) Broth microdilution [4] [µg/mL] | MIC (μg/ml) Broth microdilution [5] [µg/mL] | MIC (μg/ml) Broth microdilution [6] [µg/mL] | MIC (μg/ml) Broth microdilution (Escherichia Coli MC 4100) [µg/mL] | MIC (μg/ml) Broth microdilution [7] [µg/mL] | MIC (μg/ml) Broth microdilution [8] [µg/mL] | MIC (μg/ml) Broth microdilution [9] [µg/mL]
1 | CC(C(NC(=O)C(Cc1ccccc1)NC(=O)NC(Cc1c[nH]c2ccccc12)C(=O)O)C(=O)NCC1CC(O)C(n2ccc(=O)[nH]c2=O)O1)N(C)C(=O)CCCCN [Compound 123, 1-[5′-[(2S,3S)-N^3-(5-Aminopentanoyl)-N^2-[N-[[(1S)-1-carboxy-2-indol-3-ylethyl]carbamoyl]-L-phenylalanyl]-N^3-methyl-2,3-diaminobutyramido]-3′,5′-dideoxy-α-L-arabinofuranosyl]uracil] | 4 (≈ 4.89 µM) | >512 | 256 (≈ 313 µM) | 16 (≈ 19.6 µM) | 512 (≈ 626 µM) | 256 (≈ 313 µM) | 512 (≈ 626 µM) | >512 | 32 (≈ 39.1 µM) | >512
2 | CC(C(NC(=O)C(Cc1ccc(F)cc1)NC(=O)NC(Cc1ccc(O)cc1)C(=O)O)C(=O)NCC1CC(O)C(n2ccc(=O)[nH]c2=O)O1)N(C)C(=O)CCCCN [Compound 124, 1-[5′-[(2S,3S)-N^3-(5-Aminopentanoyl)-N^2-[N-[[(1S)-1-carboxy-4-hydroxyphenethyl]carbamoyl]-L-4-fluorophenylalanyl]-N^3-methyl-2,3-diaminobutyramido]-3′,5′-dideoxy-α-L-arabinofuranosyl]uracil] | 2 (≈ 2.46 µM) | >512 | >512 | 128 (≈ 157 µM) | 128 (≈ 157 µM) | >512 | 256 (≈ 315 µM) | >512 | 512 (≈ 630 µM) | >512
3 | CC(N)C(=O)N(C)C(C)C(NC(=O)C(Cc1ccccc1)NC(=O)NC(Cc1cccs1)C(=O)O)C(=O)NCC1CC(O)C(n2ccc(=O)[nH]c2=O)O1 [Compound 125, 1-[5′-[(2S,3S)-N^3-L-Alanyl-N^2-[N-[[(1S)-1-carboxy-2-(2-thienyl)ethyl]carbamoyl]-L-phenylalanyl]-N^3-methyl-2,3-diaminobutyramidol-3′,5′-dideoxy-α-L-arabinofuranosyl]uracil] | 8 (≈ 10.6 µM) | >512 | >512 | 8 (≈ 10.6 µM) | 64 (≈ 84.6 µM) | >512 | >512 | >512 | 64 (≈ 84.6 µM) | >512
4 | CC(N)C(=O)N(C)C(C)C(NC(=O)C(Cc1ccc([N+](=O)[O-])cc1)NC(=O)NC(Cc1ccc(O)cc1)C(=O)O)C(=O)NCC1CC(O)C(n2ccc(=O)[nH]c2=O)O1 [Compound 126, 1-[5′-[(2S,3S)-N^3-L-Alanyl-N^2-[N-[[(1S)-1-carboxy-4-hydroxyphenethyl]carbamoyl]-L-4-nitrophenylalanine-N^3-methyl-2,3-diaminobutyramido]-3′,5′-dideoxy-α-L-arabinofuranosyl]uracil] | <1 | 512 (≈ 631 µM) | >512 | 16 (≈ 19.7 µM) | 4 (≈ 4.93 µM) | >512 | 16 (≈ 19.7 µM) | 512 (≈ 631 µM) | 128 (≈ 158 µM) | 256 (≈ 315 µM)
5 | CNC(C)C(NC(=O)C(Cc1ccc(F)cc1)NC(=O)NC(Cc1ccc(O)cc1)C(=O)O)C(=O)NCC1CC(O)C(n2ccc(=O)[nH]c2=O)O1 [Compound 127, 1-[5′-[(2S,3S)-N^2-[N-[[(1S)-1-carboxy-4-hydroxyphenethyl)carbamoyl]-L-4-fluorophenylalanyl]-N^3-methyl-2,3-diaminobutyramidol-3′,5′-dideoxy-α-L-arabinofuranosyl]uracil] | 4 (≈ 5.6 µM) | >512 | >512 | 512 (≈ 717 µM) | 32 (≈ 44.8 µM) | >512 | >512 | >512 | >512 | >512
6 | CC(C(NC(=O)C(Cc1ccc(F)cc1)NC(=O)NC(Cc1ccc(O)cc1)C(=O)O)C(=O)NCC1CC(O)C(n2ccc(=O)[nH]c2=O)O1)N(C)C(=O)CN [Compound 129, 1-[5′-[(2S,3S)-N^2-[N-[[(1S)-1-Carboxy-4-hydroxyphenethyl)-L-4-fluorophenylalanyl]-N^3-glycyl-N^3-methyl-2,3-diaminobutyramido]-3′,5′-dideoxy-α-L-arabinofuranosyl]uracil] | <1 | 256 (≈ 332 µM) | >512 | 8 (≈ 10.4 µM) | 2 (≈ 2.59 µM) | >512 | 8 (≈ 10.4 µM) | >512 | 32 (≈ 41.5 µM) | 512 (≈ 664 µM)
7 | CC(C(NC(=O)C(Cc1ccc(F)cc1)NC(=O)NC(Cc1ccc(O)cc1)C(=O)O)C(=O)NCC1CC(O)C(n2ccc(=O)[nH]c2=O)O1)N(C)C(=O)c1cccc(N)c1 [Compound 131, 1-[5′-[(2S,3S)-N^3-3-Aminobenzoyl-N^2-[N-[[(1S)-1-carboxy-4-hydroxyphenethyl]carbamoyl]-L-4-fluorophenylalanyl]-N^3-methyl-2,3-diaminobutyramido]-3′,5′-dideoxy-α-Larabinofuranosyl]uracil] | 16 (≈ 19.2 µM) | >512 | >512 | 512 (≈ 615 µM) | 512 (≈ 615 µM) | >512 | >512 | 512 (≈ 615 µM) | 512 (≈ 615 µM) | >512
8 | CC(N)C(=O)N(C)C(C)C(NC(=O)C(Cc1cscn1)NC(=O)NC(Cc1ccc(O)cc1)C(=O)O)C(=O)NCC1CC(O)C(n2ccc(=O)[nH]c2=O)O1 [Compound 132, 1-[5′-[(2S,3S)-N^3-L-Alanyl-N^2-[N-[[(1S)-1-carboxy-4-hydroxyphenethyl]carbamoyl]-L-thiazolylalanyl]-N^3-methyl-2,3-diaminobutyramido]-3′,5′-dideoxy-α-L-arabinofuranosyl]uracil] | 8 (≈ 10.3 µM) | >512 | >512 | 32 (≈ 41.4 µM) | 32 (≈ 41.4 µM) | >512 | 256 (≈ 331 µM) | >512 | 128 (≈ 165 µM) | >512
9 | CC(N)C(=O)N(C)C(C)C(NC(=O)C(CCc1ccccc1)NC(=O)NC(Cc1ccc(O)cc1)C(=O)O)C(=O)NCC1CC(O)C(n2ccc(=O)[nH]c2=O)O1 [Compound 137, 1-[5′-[(2S,3S)-N^3-L-Alanyl-N^2-[N-[[(1S)-1-carboxy-4-hydroxyphenethyl]carbamoyl]-L-homophenylalanyl]-N^3-methyl-2,3-diaminobutyramido]-3′,5′-dideoxy-α-L-arabinofuranosyl]uracil] | 16 (≈ 20.5 µM) | >512 | >512 | 128 (≈ 164 µM) | 256 (≈ 328 µM) | >512 | 512 (≈ 656 µM) | >512 | 64 (≈ 82 µM) | >512
10 | CC(N)C(=O)N(C)C(C)C(NC(=O)C(CCc1ccccc1)NC(=O)NC(Cc1c[nH]c2ccccc12)C(=O)O)C(=O)NCC1CC(O)C(n2ccc(=O)[nH]c2=O)O1 [Compound 138, 1-[5′-[(2S,3S)-N^3-L-Alanyl-N^2-[N-[[(1S)-1-carboxy-2-indol-3-ylethyl]carbamoyl]-L-homophenylalanyl]-N^3-methyl-2,3-diaminobutyramido]-3′,5′-dideoxy-α-L-arabinofuranosyl]uracil] | 2 (≈ 2.49 µM) | >512 | >512 | 8 (≈ 9.95 µM) | 256 (≈ 318 µM) | >512 | 512 (≈ 637 µM) | >512 | 32 (≈ 39.8 µM) | >512
